Source: PubChem BioAssay AID2060617 (Molecular Pharmacology Branch, DTP, NCI, 2025)
“And” between values parts separate entries of the source, which are not always exact repeats. Equal values may be shown once.

Tested on: 485368-065-R4-J2-PDC spheroids with HUVEC/MSC, viability
Assay: Anticancer human tumor 485368-065-R4-J2-PDC patient-derived pancreatic carcinoma cell line growth inhibition [CLK]
Conditions: for viability, T/C: stronger effect = lower value
Procedure, shortened: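 Multi-cell-type spheroids combined patient-derived tumor cells with HUVEC endothelial cells and human mesenchymal stem cells. Paired agents were dosed in half-log steps down from about clinical Cmax, or from 10 microM where Cmax was unknown.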

[1] = curve of first compound, second compound 0.0316 µM
[2] = curve of first compound, second compound 0.1 µM
[3] = curve of first compound, second compound 0.316 µM
[4] = curve of first compound, second compound 1 µM
[5] = curve of first compound, second compound 3.16 µM
[6] = curve of first compound, second compound 10 µM
[7] = second compound 0.0316 µM, first compound 0.000949 µM
[8] = second compound 0.0316 µM, first compound 0.003 µM
[9] = second compound 0.0316 µM, first compound 0.00949 µM
[10] = second compound 0.0316 µM, first compound 0.03 µM
[11] = second compound 0.0316 µM, first compound 0.0949 µM
[12] = second compound 0.0316 µM, first compound 0.3 µM
[13] = second compound 0.1 µM, first compound 0.000949 µM
[14] = second compound 0.1 µM, first compound 0.003 µM
[15] = second compound 0.1 µM, first compound 0.00949 µM
[16] = second compound 0.1 µM, first compound 0.03 µM
[17] = second compound 0.1 µM, first compound 0.0949 µM
[18] = second compound 0.1 µM, first compound 0.3 µM
[19] = second compound 0.316 µM, first compound 0.000949 µM
[20] = second compound 0.316 µM, first compound 0.003 µM
[21] = second compound 0.316 µM, first compound 0.00949 µM
[22] = second compound 0.316 µM, first compound 0.03 µM
[23] = second compound 0.316 µM, first compound 0.0949 µM
[24] = second compound 0.316 µM, first compound 0.3 µM
[25] = second compound 1 µM, first compound 0.000949 µM
[26] = second compound 1 µM, first compound 0.003 µM
[27] = second compound 1 µM, first compound 0.00949 µM
[28] = second compound 1 µM, first compound 0.03 µM
[29] = second compound 1 µM, first compound 0.0949 µM
[30] = second compound 1 µM, first compound 0.3 µM
[31] = second compound 3.16 µM, first compound 0.000949 µM
[32] = second compound 3.16 µM, first compound 0.003 µM
[33] = second compound 3.16 µM, first compound 0.00949 µM
[34] = second compound 3.16 µM, first compound 0.03 µM
[35] = second compound 3.16 µM, first compound 0.0949 µM
[36] = second compound 3.16 µM, first compound 0.3 µM
[37] = second compound 10 µM, first compound 0.000949 µM
[38] = second compound 10 µM, first compound 0.003 µM
[39] = second compound 10 µM, first compound 0.00949 µM
[40] = second compound 10 µM, first compound 0.03 µM
[41] = second compound 10 µM, first compound 0.0949 µM
[42] = second compound 10 µM, first compound 0.3 µM
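Further: spheroids exposed to compounds for seven days.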
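Wherever viability, T/C is given: 100% = DMSO vehicle control wells.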

CC(C)CC(NC(=O)C(Cc1ccccc1)NC(=O)c1cnccn1)B(O)O (stereo not drawn) + CN1CCN(c2cc(C(=O)Nc3cc4cc(-c5cnn(C)c5)ccc4cn3)ccn2)CC1
IC50 [1]: 6.99 nM | IC50 [2]: 6.16 nM | IC50 [3]: 2.36 nM | IC50 [4]: < 0.949 nM | IC50 [5]: < 0.949 nM | IC50 [6]: < 0.949 nM | viability, T/C [7]: 93.5% | viability, T/C [8]: 118% | viability, T/C [9]: 29.8% | viability, T/C [10]: 14.3% | viability, T/C [11]: 8.25% | viability, T/C [12]: 4.1% | viability, T/C [13]: 102% | viability, T/C [14]: 92.2% | viability, T/C [15]: 24.4% | viability, T/C [16]: 14.3% | viability, T/C [17]: 7.86% | viability, T/C [18]: 3.66% | viability, T/C [19]: 89.5% | viability, T/C [20]: 39.8% | viability, T/C [21]: 14.8% | viability, T/C [22]: 8.49% | viability, T/C [23]: 4.29% | viability, T/C [24]: 2.89% | viability, T/C [25]: 1% | viability, T/C [26]: 3.72% | viability, T/C [27]: 2.87% | viability, T/C [28]: 1.87% | viability, T/C [29]: 3.57% | viability, T/C [30]: 3.73% | viability, T/C [31]: 1.35% | viability, T/C [32]: 4.02% | viability, T/C [33]: 3% | viability, T/C [34]: 3.03% | viability, T/C [35]: 3.95% | viability, T/C [36]: 4.37% | viability, T/C [37]: 1.26% | viability, T/C [38]: 3.6% | viability, T/C [39]: 2.94% | viability, T/C [40]: 1.87% | viability, T/C [41]: 2.33% | viability, T/C [42]: 1.8%

CC(C)CC(NC(=O)C(Cc1ccccc1)NC(=O)c1cnccn1)B(O)O (stereo not drawn) + CNC(=O)c1ccc(Nc2nc(OC3CCCC3)c3c(-c4ccc5nc(C)oc5c4)c[nH]c3n2)c(OC)c1
IC50 [1]: 7.22 nM | IC50 [2]: 7.19 nM | IC50 [3]: 7.21 nM | IC50 [4]: 6.69 nM | IC50 [5]: 5.66 nM | IC50 [6]: 4.91 nM | viability, T/C [7]: 99.6% | viability, T/C [8]: 122% | viability, T/C [9]: 31.1% | viability, T/C [10]: 16.4% | viability, T/C [11]: 13.2% | viability, T/C [12]: 3.24% | viability, T/C [13]: 95.3% | viability, T/C [14]: 115% | viability, T/C [15]: 32.5% | viability, T/C [16]: 13.6% | viability, T/C [17]: 11.8% | viability, T/C [18]: 3.58% | viability, T/C [19]: 94.3% | viability, T/C [20]: 112% | viability, T/C [21]: 33.4% | viability, T/C [22]: 12.5% | viability, T/C [23]: 10.1% | viability, T/C [24]: 3.9% | viability, T/C [25]: 102% | viability, T/C [26]: 101% | viability, T/C [27]: 28% | viability, T/C [28]: 12.9% | viability, T/C [29]: 7.65% | viability, T/C [30]: 1.74% | viability, T/C [31]: 89.4% | viability, T/C [32]: 89.7% | viability, T/C [33]: 17.9% | viability, T/C [34]: 7.21% | viability, T/C [35]: 5.69% | viability, T/C [36]: 2.56% | viability, T/C [37]: 77.9% | viability, T/C [38]: 78.2% | viability, T/C [39]: 12.5% | viability, T/C [40]: 5.34% | viability, T/C [41]: 4.07% | viability, T/C [42]: 1.36%

C=C(F)C(=O)N1CCN(c2nc(OCC3CCCN3C)nc3c2CCN(c2cccc4cccc(Cl)c24)C3)CC1CC#N (stereo not drawn)
viability, T/C (compound 0.0316 µM): 94.9% and 103% | viability, T/C (compound 0.1 µM): 97% and 106% | viability, T/C (compound 0.316 µM): 95.6% and 100% | viability, T/C (compound 1 µM): 106% and 105% | viability, T/C (compound 3.16 µM): 121% and 113% | viability, T/C (compound 10 µM): 104% and 126% | IC50 (curve of compound): > 10000 nM

COC1C=CCC(C)C(C)S(=O)(=O)NC(=O)c2ccc3c(c2)N(CC2CCC21)CC1(CCCc2cc(Cl)ccc21)CO3 (stereo not drawn)
viability, T/C (compound 0.0316 µM): 92.5% and 105% | viability, T/C (compound 0.1 µM): 109% and 93.5% | viability, T/C (compound 0.316 µM): 101% and 105% | viability, T/C (compound 1 µM): 132% and 123% | viability, T/C (compound 3.16 µM): 105% | viability, T/C (compound 10 µM): 86.1% and 74.7% | IC50 (curve of compound): > 10000 nM
